Source: PMC6723402, “Secondary Metabolites with α-Glucosidase Inhibitory Activity from the Mangrove Fungus Mycosphaerella sp. SYSU-DZG01” (Marine Drugs, 2019)

Tests used:
[1] = DPPH· radical scavenging (antioxidant) assay; conditions: 30 min; for Antioxidant % Inhibition (100 μM): DPPH· scavenging at 100 μM; for EC50: DPPH· scavenging
Protocol: The DPPH· scavenging was assayed according to the reported method. The DPPH radical scavenging test was performed in 96-well microplates. Testing materials (compounds 1–11) were added to 150 μL (0.16 mmol/L) DPPH solution in MeOH at a range of 50 μL solutions of different concentrations (2, 25, 50 and 100 μM). After 30 min, absorbance at 517 nm was measured and the percentage of activity was calculated. Ascorbic acid was used as a positive control.

[2] = biological target: α-glucosidase; assay: α-glucosidase inhibitory activity assay (p-nitrophenyl glycoside substrate, 96-well, 405 nm); assay type: biochemical; conditions: PBS pH 7.0, 37 °C
Protocol: The α-glucosidase inhibitory activity was assayed according to the reported method. The inhibitory activity of α-glucosidase was tested in the 96-well plated with […] PBS (KH2PO4-K2HPO4, pH 7.0) buffer solution each. […] The assay was conducted in a 100 μL reaction system containing 20 μL enzyme stock solution, 69 μL PBS buffers and 1 μL of DMSO or testing materials. After 10 min incubation at 37 °C, 10 μL of the substrate was added and incubated for 20 min at 37 °C. The Absorbance which measured by a BIO-RAD (iMark) microplate reader at 405 nm was used to calculate the inhibitory activity according to the equation:η (%) = [(B − S)/B] × 100%(1) η (%) is the percentage of inhibition; B is the assay medium with DMSO; S is the assay medium with compound. The results of IC50 values were calculated by the nonlinear regression analysis.

| Compound | Antioxidant % Inhibition (100 μM) [1] [%] | EC50 [1] [µM] | melting point [°C] | IC50 [2] [µM] |
| --- | --- | --- | --- | --- |
| COC(=O)c1c(C)c(O)c(O)c(O)c1C=O [Compound 4, 2-methoxycarbonyl-4,5,6-trihydroxy-3-methyl-benzaldehyde] | 57 | 85.8 | 95.9 to 97.8 | > 50 |
| Cc1c(O)c(O)c(O)c(C=O)c1-c1cc2c(C=O)c(C)c(O)c(O)c2o1 [Compound 8, epicoccolide B] | 89 | 16.3 | – | 26.7 |
| CC1=C(C)C2(C)C(=O)C(O)(C1=O)C1(C)C(=O)C2(O)C(=O)C(C)=C1C [Compound 2, dibefurin B] | <50 | – | – | > 50 |
| Cc1c(O)cc(O)c(C(=O)OC[C@@H](O)[C@H](O)[C@H](O)CO)c1C [Compound 7, paeciloside A] | <50 | – | – | > 50 |
| 1,3-dihydro-5-methoxy-7-methylisobenzofuran [Compound 6] | 65 | 59.1 | – | > 50 |
| O=C1O[C@H]([C@@H](O)CO)C(O)=C1O [Ascorbic acid, ascorbic acid, reference compound] | 92 | 22.4 | – | – |
| CC1=CC2C=C(C)C(C)C3C(CC(C)C)NC(=O)C23C(=O)C2C3OC(c4c(C)c(O)c(O)c(O)c43)C2C(=O)CCC1 (stereo not drawn) [Compound 1, asperchalasine I] | 56 | 77.8 | – | 17.1 |
| CC(O)C1OCc2c(O)cccc21 [Compound 3, (R)-9-((R)-10-hydroxyethyl)-7,9-dihydroisobenzofuran-1-ol] | <50 | – | 89.8 to 91.9 | > 50 |
| Cc1c(O)c(O)c(O)c2c1COC2=O [Compound 5, epicoccone B] | <50 | – | – | > 50 |
